Assay results reported in patent publication US20160060222A1, “AMINO-QUINOLINES AS KINASE INHIBITORS” (GlaxoSmithKline Intellectual Property Development Limited, priority 2011, published 2016).
Counter-ions that a name gives are not always drawn.

Molecular target: T1, RIPK2 (Homo sapiens, UniProt O43353)
T1 construct: Full length FLAG His tagged RIPK2 was purified from a Baculovirus expression system; FLAG (N); 6His (N); made in house; host or cells: Spodoptera frugiperda (Sf9) insect cells, baculovirus
T1 sequence (O43353 whole entry): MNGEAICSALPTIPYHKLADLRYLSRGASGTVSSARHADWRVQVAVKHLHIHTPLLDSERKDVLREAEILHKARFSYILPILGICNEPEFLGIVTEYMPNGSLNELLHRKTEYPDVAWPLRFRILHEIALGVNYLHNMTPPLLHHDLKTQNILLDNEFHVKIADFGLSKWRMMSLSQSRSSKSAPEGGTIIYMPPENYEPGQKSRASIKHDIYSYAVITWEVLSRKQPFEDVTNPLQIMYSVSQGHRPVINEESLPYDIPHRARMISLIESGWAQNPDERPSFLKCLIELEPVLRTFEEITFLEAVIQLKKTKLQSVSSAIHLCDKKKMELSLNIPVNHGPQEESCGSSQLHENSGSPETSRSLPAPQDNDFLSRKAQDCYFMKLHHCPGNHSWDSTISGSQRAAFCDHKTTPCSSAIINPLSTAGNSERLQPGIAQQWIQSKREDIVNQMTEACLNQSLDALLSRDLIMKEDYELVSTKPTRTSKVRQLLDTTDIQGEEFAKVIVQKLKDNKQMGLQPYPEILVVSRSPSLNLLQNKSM
Assay: Fluorescent polarization based binding assay at the ATP binding pocket of RIPK2
Conditions: full length FLAG His tagged RIPK2; competition with fluorescently labeled ATP competitive ligand (5 nM); mean of a minimum of 2 experiments; read-out: mean pIC50 (RIP2 kinase, fluorescent polarization binding assay) (converted)
Text: A fluorescent polarization based binding assay was developed to quantitate interaction of novel test compounds at the ATP binding pocket of RIPK2, by competition with a fluorescently labeled ATP competitive ligand. Full length FLAG His tagged RIPK2 was purified from a Baculovirus expression system and was used at a final assay concentration of twice the KDapparent. A fluorescent labeled ligand (5-({[2-({[3-({4-[(5-hydroxy-2-methylphenyl)amino]-2-pyrimidinyl}amino)phenyl]carbonyl}amino)ethyl]amino}carbonyl)-2-(6-hydroxy-3-oxo-3H-xanthen-9-yl)benzoic acid, prepared as described below) was used at a final assay concentration of 5 nM. Both the enzyme and ligand were prepared in solutions in 50 mM HEPES pH7.5, 150 mM NaCl, 10 mM MgCl2, 1 mM DTT, and 1 mM CHAPS. Test compounds were prepared in 100% DMSO and 100 nL was dispensed to individual wells of a multiwell plate. Next, 5 ul RIPK2 was added to the test compounds at twice the final assay concentration, and incubated at room temperature for 10 minutes. Following the incubation, 5 ul of the fluorescent labeled ligand solution, was added to each reaction, at twice the final assay concentration, and incubated at room temperature for at least 10 minutes. Finally, samples were read on an instrument capable of measuring fluorescent polarization. Test compound inhibition was expressed as percent (%) inhibition of internal assay controls.
For concentration response experiments, normalized data were fit and pIC50s determined using conventional techniques. For example, the following four parameter logistic equation may be used: y=A+(([…]))/(1+(10^x)/(10^C)^D), where: y is the % activity (% inhibition) at a specified compound concentration; A is the minimum % activity; B is the maximum % activity; C=log10(IC50); D=Hill slope; x=log10 (compound concentration [M]); and pIC50=(−C).
The pIC50s are averaged to determine a mean value, for a minimum of 2 experiments.
Full-length human RIPK2 (receptor-interacting serine-threonine kinase 2) cDNA was purchased from Invitrogen (Carlsbad, Calif., USA, Clone ID:10H6368, RIPK2-pENTR 221). […]

Row | IC50 [nM] | SMILES
1 | 398 | CS(=O)(=O)c1ccc2nccc(Nc3ccc(O)c(F)c3)c2c1 [Example 12, 2-fluoro-4-{[6-(methylsulfonyl)-4-quinolinyl]amino}phenol]
2 | 126 | CS(=O)(=O)c1ccc2nccc(Nc3n[nH]c4cc(Cl)ccc34)c2c1 [Example 75, N-(6-chloro-1H-indazol-3-yl)-6-(methylsulfonyl)-4-quinolinamine]
3 | 126 | Nc1ccc(S(=O)(=O)c2ccc3nccc(Nc4ccc5scnc5c4)c3c2)cc1 [Example 106, 6-[(4-aminophenyl)sulfonyl]-N-1,3-benzothiazol-5-yl-4-quinolinamine tetrahydrochloride]
